Assay results from article PMC10279719 (Nature Communications, 2023).

Target: T1, 14-3-3ε (Homo sapiens, UniProt P62258)
T1 construct: 14-3-3ε (UniProt P62258-1; residues 1–255); 8-His tag with TEV protease cleavage site (N); made in house; host or cells: E. coli C41 (DE3)
T1 sequence (P62258 1-255): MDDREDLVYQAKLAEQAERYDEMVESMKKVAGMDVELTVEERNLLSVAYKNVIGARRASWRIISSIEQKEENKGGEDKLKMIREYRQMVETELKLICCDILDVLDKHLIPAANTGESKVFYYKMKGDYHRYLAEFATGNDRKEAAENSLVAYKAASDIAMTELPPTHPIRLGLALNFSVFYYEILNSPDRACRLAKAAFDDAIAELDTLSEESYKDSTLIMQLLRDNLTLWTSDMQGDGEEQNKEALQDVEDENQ
Test: SPR, PEAK tandem peptides binding to immobilised 14-3-3ε
Conditions: peptide analyte over amine-coupled 14-3-3ε (CM5); Biacore S200, HBS-TP pH 7.4, 20 °C; steady-state 1:1 fit; mean ± S.E.M.; read-out: SPR KD, 14-3-3ε (epsilon)
Description: Purified […]3 was diluted to 5 μg ml^-1 in 10 mM sodium acetate pH 4.0 and amine coupled at 25 °C to a Series S CM5 sensor chip, in HBS-N running buffer (20 mM HEPES pH 7.4, 150 mM NaCl) to a final immobilization level of 1100-1400 response units (RU), followed by surface deactivation using 1 M ethanolamine. A blank activation/deactivation was used for the reference surface. […] PEAK PRM peptides: […] Samples were injected in a multi-cycle run (flow rate 30 μl min^-1, contact time of 60 s, dissociation 120 s) without regeneration. Sensorgrams were double referenced, and steady-state binding data fitted using a 1:1 binding model using Biacore S200 Evaluation Software (Cytiva, v. 1.1). […] Representative sensorgrams and fitted dissociation constant (KD) values, depicted as mean ± S.E.M.

CC[C@H](C)[C@H](NC(=O)[C@H](CCCCN)NC(=O)[C@H](CCCCN)NC(=O)[C@@H]1CCCN1C(=O)[C@H](CC(C)C)NC(=O)[C@@H]1CCCN1C(=O)[C@@H]1CCCN1C(=O)[C@@H]1CCCN1C(=O)[C@H](CC(C)C)NC(=O)[C@@H]1CCCN1C(C)=O)C(=O)N[C@@H](CC(C)C)C(=O)N[C@H](C(=O)N[C@@H](CCCNC(=N)N)C(=O)N[C@H](C(=O)N[C@@H](CCC(N)=O)C(=O)N[C@@H](CO)C(=O)N[C@@H](CC(C)C)C(=O)N1CCC[C@H]1C(=O)N[C@H](C(=O)N[C@@H](CCCNC(=N)N)C(=O)N[C@@H](CCCNC(=N)N)C(N)=O)[C@@H](C)O)[C@@H](C)O)[C@@H](C)O (single isomer, unassigned) [PEAK3^tandem]
Kd: > 100 µM
